Patent US20050063940A1, “Bioadhesive agent” (priority 2002, published 2005)

Assay: Cross-over study of drug A blood levels with 1% Softigen or 1% Labrasol formulation
Design: species or system rabbits
Settings: rabbit, in vivo
Protocol: In a cross-over study, 4 rabbits received drug A in a formulation containing 1% Softigen® (Sasol GmbH, Germany) (n=4) and 1% Labrasol® (Gattefosse, France) (n=4) and were sampled for blood samples after 0, 2, 5, 10, 15, 30, 45 and 60 min.

## macrogol-6-glycerol-caprylocaprate [PEG6-CCG]
  tmax: 6 min
